The values below come from patent US20150209327A1, “METHODS FOR THE TREATMENT OF OBESITY USING APREMILAST” (Celgene Corporation, priority 2014, published 2015).

In assay [1] the target is T1, PDE6 (Bos taurus, UniProt P11541+P23439).
T1 sequence (P11541 1-859): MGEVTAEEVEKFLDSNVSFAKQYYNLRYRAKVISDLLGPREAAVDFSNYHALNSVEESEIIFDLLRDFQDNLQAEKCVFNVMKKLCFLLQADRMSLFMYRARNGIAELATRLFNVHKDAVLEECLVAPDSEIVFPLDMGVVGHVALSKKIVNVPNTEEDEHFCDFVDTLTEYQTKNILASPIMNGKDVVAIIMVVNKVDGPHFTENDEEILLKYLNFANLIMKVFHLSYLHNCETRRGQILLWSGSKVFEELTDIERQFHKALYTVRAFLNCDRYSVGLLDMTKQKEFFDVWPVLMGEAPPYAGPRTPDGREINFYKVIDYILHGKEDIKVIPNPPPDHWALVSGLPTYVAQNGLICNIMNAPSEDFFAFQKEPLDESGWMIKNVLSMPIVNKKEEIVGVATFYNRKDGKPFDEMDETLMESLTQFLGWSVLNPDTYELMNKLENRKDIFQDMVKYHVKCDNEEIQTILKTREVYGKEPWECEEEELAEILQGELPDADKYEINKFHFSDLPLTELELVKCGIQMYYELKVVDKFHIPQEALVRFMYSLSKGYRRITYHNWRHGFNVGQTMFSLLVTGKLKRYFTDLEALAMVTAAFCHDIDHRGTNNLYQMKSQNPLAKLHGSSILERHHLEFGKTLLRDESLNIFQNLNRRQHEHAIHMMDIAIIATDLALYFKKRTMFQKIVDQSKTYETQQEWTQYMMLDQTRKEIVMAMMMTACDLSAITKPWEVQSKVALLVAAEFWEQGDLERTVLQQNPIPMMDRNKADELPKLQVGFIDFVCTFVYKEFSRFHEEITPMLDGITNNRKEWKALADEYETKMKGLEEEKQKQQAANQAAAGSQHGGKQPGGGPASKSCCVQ
T1 sequence (P23439 1-853): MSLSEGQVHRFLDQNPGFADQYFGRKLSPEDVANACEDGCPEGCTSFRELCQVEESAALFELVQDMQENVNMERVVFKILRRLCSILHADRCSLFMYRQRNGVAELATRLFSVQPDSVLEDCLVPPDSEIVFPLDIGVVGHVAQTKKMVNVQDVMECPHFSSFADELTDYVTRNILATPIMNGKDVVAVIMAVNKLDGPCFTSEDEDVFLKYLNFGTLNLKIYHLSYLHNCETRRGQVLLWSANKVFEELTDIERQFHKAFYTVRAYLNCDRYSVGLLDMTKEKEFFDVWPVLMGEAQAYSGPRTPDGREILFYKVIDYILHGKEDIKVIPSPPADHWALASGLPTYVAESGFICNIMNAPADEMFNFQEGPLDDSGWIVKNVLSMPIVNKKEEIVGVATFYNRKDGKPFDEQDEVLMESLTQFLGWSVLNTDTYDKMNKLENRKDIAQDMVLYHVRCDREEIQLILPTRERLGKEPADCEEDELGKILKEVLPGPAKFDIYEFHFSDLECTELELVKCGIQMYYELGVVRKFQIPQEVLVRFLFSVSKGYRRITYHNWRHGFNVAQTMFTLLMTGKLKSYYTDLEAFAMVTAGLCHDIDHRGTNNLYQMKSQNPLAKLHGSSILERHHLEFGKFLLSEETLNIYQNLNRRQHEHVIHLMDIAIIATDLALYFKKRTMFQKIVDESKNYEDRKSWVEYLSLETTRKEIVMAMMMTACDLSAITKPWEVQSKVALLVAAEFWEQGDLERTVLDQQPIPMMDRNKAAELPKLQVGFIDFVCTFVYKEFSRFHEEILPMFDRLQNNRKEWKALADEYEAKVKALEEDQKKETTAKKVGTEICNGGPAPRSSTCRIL
The assay is described as follows: PDE6 enzyme assay. It is filed as biochemical. How it is done: PDE1, 2, 3 and 5 enzyme assays were prepared as described by Hidaka and Asano. Biochem. Biophys. Acta., 1976, 429:485; see also Nicholsen et al., Trends Pharmaco. Sci., 1991, 12:19. The PDE6 enzyme assay was prepared according to Baehr et al., J. Biol. Chem., 1979, 254:11669 and Gillespie et al., Mol. Pharm., 1989, 36: 773. The PDE7 enzyme assay was prepared according to Bloom and Beavo. Proc. Natl. Acad. Sci. USA, 1996, 93:14188-92.

The test system of assay [2] is TNF-α production. The assay is described as follows: Inhibition of TNF-α production in a mouse model. It is filed as in vivo. The text has this: The test methods were as described in WO 03/080049; Muller et al., J. Med. Chem., 1996, 39:3238; and Muller et al., Bioorg. Med. Chem. Lett., 1999, 9:1625-30.

As to `CCOc1cc([C@@H](CS(C)(=O)=O)N2C(=O)c3cccc(NC(C)=O)c3C2=O)ccc1OC` [Apremilast, (+)-2-[1-(3-ethoxy-4-methoxyphenyl)-2-methylsulfonylethyl]-4-acetylaminoisoindoline-1,3-dione], the inhibition (commonly the drop in the measured response relative to a control, in per cent) at 10 µM in assay [1] was -6%. Also, in assay [2], the “EC50, inhibition of TNF-α production in a mouse model” value is 0.05 mg/kg.
